How the values were obtained:
[1] = test system: anti-cortisol antibody; conditions: prior art commercial cortisol assays; cited from earlier work
[2] = test system: biotinylated sheep anti-cortisol gamma globulin (anti-cortisol antibody); test: VITROS ECi chemiluminescence competitive immunoassay, cross-reactivity (50% displacement of HRP-labeled conjugate); assay type: binding; conditions: cortisol conc. displacing 50% / cross-reactant conc. displacing 50% x 100; for Percent Cross-Reactivity, HRP-RC Invention Label: HRP labeled reduced cortisol-3-CMO-BSA (HRP-RC) as label; for Percent Cross-Reactivity, HRP-NRC Comparative Label: comparative HRP labeled nonreduced cortisol conjugate (HRP-NRC) as label
Protocol: Evaluation of the HRP labeled reduced cortisol-3-CMO-BSA (hereinafter referred to as HRP-RC conjugate) was evaluated using an Ortho-Clinical Diagnostic VITROS ECi chemiluminesence-based assay methodology.
100 ng/mL reduced cortisol-3-CMO-BSA-HRP (or 20 ng/mL of a comparative HRP-cortisol conjugate label, which is not a conjugate label of the present invention, but which was carried through the same procedures as the label of the invention except for the reduction step)
1.5 μg/mL biotinylated sheep anti-cortisol gamma globulin
An aliquot (75 μL) of anti-cortisol biotinylated sheep antibody, 30 μL of sample, serum comprising cortisol or a steroid structurally similar to cortisol (below), and 75 μL of HRP-RC conjugate were added to an VITROS ECi sample container to which strepavidin had been prebound. The solution was incubated at 37° C. for 30 minutes, then washed using the above-indicated wash reagent.
A 200 μL aliquot of the above-indicated signal reagent solution (100 μL of part A and 100 μL of part B combined just prior to use) was then added to the sample container. The solution was incubated for 5 minutes at 37° C., and the chemiluminesence intensity was then determined.
The above method was used to determine the concentration of potential cross reactant (steroid that is structurally similar to cortisol: 11-deoxycortisol, prednisolone, corticosterone and cortisone) that displaced fifty percent of a fixed amount of a comparative HRP labeled cortisol conjugate (nonreduced cortisol, HRP-NRC) or HRP-RC conjugate bound to a fixed amount of anti-cortisol antibody.
Varied levels of the potential cross reactant were added to sample containers containing either the comparative labeled cortisol conjugate (nonreduced cortisol, HRP-NRC) or HRP-RC conjugate of the instant invention, as described above.
The concentration of cross reactant resulting in a light signal measurement corresponding to 50% of the maximum attainable (all conjugate displaced) was determined and used to calculate the percent cross reactivity as described below and whose results are listed in Table 1.
Percent cross-reactivity is defined as The concentration of cortisol that displaced 50% of the HRP-NRC comparative conjugate (or the HRP-RC conjugate) divided by the concentration of cross-reactant that displaced 50% of the HRP-NRC comparative conjugate (or the HRP-RC conjugate) multiplied by 100 as determined per the assay method described hereinabove.

Row | SMILES | Percent Cross-Reactivity, HRP-RC Invention Label [2] [%] | Percent Cross-Reactivity, HRP-NRC Comparative Label [2] [%] | cross-reactivity in commercial cortisol assays [1]
1 | C[C@]12CCC(=O)C=C1CC[C@@H]1[C@@H]2CC[C@@]2(C)[C@H]1CC[C@]2(O)C(=O)CO [11-deoxycortisol] | 2.2 | 28.4 | greater than 10%
2 | C[C@]12C[C@H](O)[C@H]3[C@@H](CCC4=CC(=O)CC[C@@]43C)[C@@H]1CC[C@@H]2C(=O)CO [corticosterone] | 3.3 | 4.4 | 
3 | C[C@]12CCC(=O)C=C1CC[C@@H]1[C@@H]2C(=O)C[C@@]2(C)[C@H]1CC[C@]2(O)C(=O)CO [cortisone] | 1.8 | 5.5 | 

The next lines start with results.

Row | Percent Cross-Reactivity, HRP-RC Invention Label [2] [%] | Percent Cross-Reactivity, HRP-NRC Comparative Label [2] [%] | SMILES | cross-reactivity in commercial cortisol assays [1]
4 | 100 | 100 | C[C@]12CCC(=O)C=C1CC[C@@H]1[C@@H]2[C@@H](O)C[C@@]2(C)[C@H]1CC[C@]2(O)C(=O)CO [cortisol] | 
5 | 24.6 | 34.8 | C[C@]12C=CC(=O)C=C1CC[C@@H]1[C@@H]2[C@@H](O)C[C@@]2(C)[C@H]1CC[C@]2(O)C(=O)CO [prednisolone] | 

Source: patent publication US6383766B1, “Reduced cortisol conjugates” (Ortho-Clinical Diagnostics, Inc., priority 1998, dated 2002)
